In publication PMC5364125 (EJNMMI Research, 2017):
pKi: −log10 of the molar value. “And” between values parts separate entries of the source, which are not always exact repeats. Equal entries are not always repeated. Where two headings read alike, the source gives them in different places.

How the values were obtained:
[1] = set-up: method as in PMID 25616581; details: cited from earlier work
[2] = system: TSPO; details: human subjects; cited from earlier work
[3] = system: TSPO; details: cited from earlier work
[4] = set-up: method as in PMID 27329083; details: rats; cited from earlier work
[5] = set-up: method as in PMID 27329083; details: cited from earlier work
[6] = Text: The protocol for investigating radiation dosimetry in human subjects using whole-body imaging was essentially the same as that reported previously.
Whole-body PET/CT scans were obtained using a Discovery 710 PET/CT scanner (GE Healthcare) in 3D mode. LD-CT was used for attenuation correction of the PET emission scan. […] Then, 128-min scans (18 frames, 13 bed positions per frame, overlap of 23 of 47 slices per bed, 15 s/bed × four frames, 30 s/bed × 12 frames, and 60 s/bed × two frames) from the top of the head to mid-thigh were performed. Images were reconstructed using a 3D-ordered subset expectation maximization algorithm (subset, 24; iteration, 2) with a 6.4-mm Gaussian filter.
ROIs were manually placed over […] that could be identified on PET or LD-CT: adrenals, brain, gallbladder, small intestine, stomach, heart wall, kidneys, liver, lungs, pancreas, bone marrow (thoracic and lumbar vertebrae), spleen, testes, thymus, thyroid, and urinary bladder. The decay-uncorrected and decay-corrected TACs of organs were calculated as the percent injected dose (%ID) per milliliter and the %ID per organ. The volume of bone marrow, in which only part of the organ could be measured, was substituted by the volume that was calculated from the mass of red marrow in the adult male phantom (1.12 kg for 73.7 kg of body weight) adjusted by the subject’s body weight and 1.04 g/mL as the specific gravity. The normalized number of disintegrations (MBq-h/MBq administered) for each source organ is equal to the area under the time course of decay-uncorrected curve (%ID/mL) multiplied by the volume of the organ ROI. The area under the time course curve was calculated by summing the area from time zero to the endpoint of the scan and the area from the endpoint of the scan to infinity. The former area was calculated by trapezoidal integration. The latter area was calculated by integration of radioactive decay from the endpoint.
The absorbed doses in 25 target organs of the adult male phantom were estimated from the normalized number of disintegrations of source organs by implementing the Medical Internal Radiation Dose method using OLINDA/EXM (Vanderbilt University). The effective dose was also calculated by OLINDA/EXM using the methodology described in International Commission on Radiological Protection Publication 60 [40].

[7] = system: TSPO; test: Dynamic brain PET, V T by two-tissue compartment model; format: in vivo, human
Description: (§1) PET scanning was performed using a Discovery PET/computed tomography (CT) 710 scanner (GE Healthcare, Milwaukee, WI) in 3D mode. This scanner has an axial field of view of 15.7 cm, a spatial resolution of 4.5 mm full width at half maximum (FWHM), and a Z-axis resolution of 4.8 mm FWHM. We acquired 47 slices. […] Arterial blood (0.5 mL each) was sampled at 10, 20, 30, 40, 50, 60, 70, 80, 90, 100, 110, 120, 135, 150, and 180 s, as well as at 5, 7, 10, 15, 20, 30, 40, 50, 60, 75, and 90 min. The whole blood and separated plasma were weighed, and radioactivity was measured with a NaI (Tl) well scintillation counter (BeWell Model-QS03 F/B; Molecular Imaging Labo, Suita, Japan). To analyze the labeled metabolites, 1.5 mL additional blood was obtained at 3, 10, 20, 30, 40, and 60 min. After the PET scan, urine was obtained from each subject, and radioactivity was measured.
The dynamic images were post-smoothed with a 4-mm FWHM Gaussian filter. The data were reconstructed in 128 × 128 × 47 voxels, and the voxel size was 2 × 2 × 3.27 mm. Partially overlapping circular regions of interests (ROIs) that were 10 mm in diameter were placed on the frontal, temporal, parietal, occipital, and cerebellar cortices, thalamus, putamen, and head of the caudate nucleus with reference to the co-registered MRI. TACs for these ROIs were calculated as becquerel per milliliter or as standardized uptake value (SUV): (activity/ml tissue)/(injected activity/g body weight). […] The goodness of fit by the two-model analysis was evaluated using AIC.

[8] = system: TSPO; set-up: method as in PMID 25616581; details: 6-hydroxydopamine-injured striatum; cited from earlier work
[9] = estimated from murine distribution data; cited from earlier work
[10] = HPLC metabolite analysis of plasma and urine; format: in vivo, human
Description: as §1

[11] = system: TSPO; set-up: method as in PMID 25771904; details: herpes encephalitis rat model; cited from earlier work
[12] = two-tissue compartment model, typical subjects n = 4

## CC[C@@H](C)N(C)C(=O)c1cc2ccccc2c(-c2ccccc2Cl)n1 [(R)-PK11195, reference compound]
[1]
  logP: 2.54

## CC[C@@H](C)N([11CH3])C(=O)c1cc2ccccc2c(-c2ccccc2Cl)n1 [(R)-[^11C]PK11195]
[2]
  V T caudate: 0.3 ± 0.1
  V T cerebellum: 0.3 ± 0.1
  V T frontal cortex: 0.3 ± 0.1
  V T parietal cortex: 0.4 ± 0.1
  V T putamen: 0.3 ± 0.1
  V T thalamus: 0.4 ± 0.1

## CCCN(CCC)C(=O)Cc1c(-c2ccc(OC)cc2)nc2c(Cl)cc(Cl)cn12 [CB184]
[3]
  relative TSPO binding affinity to (R)-PK11195: 7.9 fold
[3]; read-out: K i, affinity for TSPO
  pKi: 9.27
[4]
  abnormalities in the acute toxicity test: absence of any abnormalities
[5]
  mutagenicity: absence of mutagenicity
[1]
  logP: 2.06

## CCN(CC)C(=O)Cc1c(-c2ccc(OC)cc2)nn2c(C)cc(C)nc12 [DPA-713]
[3]
  relative TSPO binding affinity to (R)-PK11195: 2 fold

## CCN(CC)C(=O)Cc1c(-c2ccc(OCCF)cc2)nn2c(C)cc(C)nc12 [DPA-714]
[3]
  relative TSPO binding affinity to (R)-PK11195: 1.3 fold

## COc1ccccc1CN(C(C)=O)c1cnccc1Oc1ccccc1 [PBR28]
[3]
  relative TSPO binding affinity to (R)-PK11195: 2–5 folds

## CCCN(CCC)C(=O)Cc1c(-c2ccc(O[11CH3])cc2)nc2c(Cl)cc(Cl)cn12 [[^11C]CB184, N,N-di-n-propyl-2-[2-(4-[^11C]methoxyphenyl)-6,8-dichloroimidazol[1,2-a]pyridine-3-yl]acetamide]
[6]; at 132 ± 0 min, n = 3
  radioactivity voided into urine, of the injected activity: 0.3% ± 0
[6]; at 3.3 min, one subject
  lungs radioactivity, initial time point: 25 %ID
[6]; first frame
  lungs uptake: 25 % injected activity
[6]; healthy male subjects n = 3
  Absorbed dose, Adrenals: 4.6 ± 0.9 μGy/MBq
  Absorbed dose, Brain: 4.0 ± 0.3 μGy/MBq
  Absorbed dose, Breasts: 2.2 ± 0.0 μGy/MBq
  Absorbed dose, Gallbladder wall: 5.4 ± 0.4 μGy/MBq
  Absorbed dose, Heart wall: 12.8 ± 0.5 μGy/MBq
  Absorbed dose, Kidneys: 21.0 ± 0.5 μGy/MBq
  Absorbed dose, Liver: 8.3 ± 0.9 μGy/MBq
  Absorbed dose, Lower large intestine wall: 2.3 ± 0.1 μGy/MBq
  Absorbed dose, Lungs: 16.8 ± 2.7 μGy/MBq
  Absorbed dose, Muscle: 2.2 ± 0.1 μGy/MBq
  Absorbed dose, Osteogenic cells: 3.6 ± 0.1 μGy/MBq
  Absorbed dose, Ovaries: 2.5 ± 0.1 μGy/MBq
  Absorbed dose, Pancreas: 16.5 ± 2.2 μGy/MBq
  Absorbed dose, Red marrow: 3.2 ± 0.1 μGy/MBq
  Absorbed dose, Skin: 1.7 ± 0.1 μGy/MBq
  Absorbed dose, Small intestine: 5.4 ± 0.9 μGy/MBq
  Absorbed dose, Spleen: 16.6 ± 6.6 μGy/MBq
  Absorbed dose, Stomach wall: 4.5 ± 0.9 μGy/MBq
  Absorbed dose, Testes: 3.6 ± 0.7 μGy/MBq
  Absorbed dose, Thymus: 2.1 ± 0.0 μGy/MBq
  Absorbed dose, Thyroid: 12.0 ± 3.9 μGy/MBq
  Absorbed dose, Total body: 2.8 ± 0.0 μGy/MBq
  Absorbed dose, Upper large intestine wall: 2.8 ± 0.1 μGy/MBq
  Absorbed dose, Urinary bladder wall: 2.1 ± 0.1 μGy/MBq
  Absorbed dose, Uterus: 2.5 ± 0.1 μGy/MBq
  Effective dose: 5.9 ± 0.6 μSv/MBq
[6]; last frame
  lungs uptake: 4.2 % injected activity
[6]; mean ± SD, n = 3
  Normalized number of disintegrations, Adrenals: 1.3E-04 ± 5.7E-05 (9.5E-05 – 2.0E-04) MBq-h/MBq administered
  Normalized number of disintegrations, Brain: 1.6E-02 ± 1.3E-03 (1.5E-02 – 1.7E-02) MBq-h/MBq administered
  Normalized number of disintegrations, Gallbladder contents: 8.6E-04 ± 2.3E-04 (7.1E-04 – 1.1E-03) MBq-h/MBq administered
  Normalized number of disintegrations, Heart wall: 1.3E-02 ± 6.2E-04 (1.3E-02 – 1.4E-02) MBq-h/MBq administered
  Normalized number of disintegrations, Kidneys: 2.2E-02 ± 4.7E-04 (2.2E-02 – 2.2E-02) MBq-h/MBq administered
  Normalized number of disintegrations, Liver: 4.2E-02 ± 5.4E-03 (3.8E-02 – 4.8E-02) MBq-h/MBq administered
  Normalized number of disintegrations, Lungs: 6.2E-02 ± 1.1E-02 (5.1E-02 – 7.2E-02) MBq-h/MBq administered
  Normalized number of disintegrations, Pancreas: 5.2E-03 ± 7.6E-04 (4.5E-03 – 6.0E-03) MBq-h/MBq administered
  Normalized number of disintegrations, Red marrow: 1.0E-02 ± 1.7E-03 (8.8E-03 – 1.2E-02) MBq-h/MBq administered
  Normalized number of disintegrations, Remainder: 2.9E-01 ± 2.0E-02 (2.8E-01 – 3.2E-01) MBq-h/MBq administered
  Normalized number of disintegrations, Small intestine: 1.0E-02 ± 2.9E-03 (6.9E-03 – 1.3E-02) MBq-h/MBq administered
  Normalized number of disintegrations, Spleen: 1.0E-02 ± 4.5E-03 (4.9E-03 – 1.3E-02) MBq-h/MBq administered
  Normalized number of disintegrations, Stomach: 3.2E-03 ± 1.7E-03 (2.1E-03 – 5.2E-03) MBq-h/MBq administered
  Normalized number of disintegrations, Testes: 4.3E-04 ± 1.1E-04 (3.1E-04 – 5.0E-04) MBq-h/MBq administered
  Normalized number of disintegrations, Thymus: 3.8E-05 ± 1.8E-06 (3.7E-05 – 4.1E-05) MBq-h/MBq administered
  Normalized number of disintegrations, Thyroid: 9.4E-04 ± 3.4E-04 (6.3E-04 – 1.3E-03) MBq-h/MBq administered
  Normalized number of disintegrations, Urinary bladder contents: 9.8E-05 ± 3.7E-05 (5.5E-05 – 1.2E-04) MBq-h/MBq administered
[6]; whole-body PET
  time of peak radioactivity in liver: 20 min
[7]; after intravenous injection, typical subjects n = 4
  time of peak radioactivity in all gray matter regions: about 5 min
[7]; comparison with ref 15 values
  V T values relative to those of (R)-[^11C]PK11195: 10 times
[7]; [12]
  V T caudate: 3.2 ± 0.1 mL/cm^3
  V T cerebellum: 4.4 ± 0.2 mL/cm^3
  V T frontal cortex: 4.0 ± 0.2 mL/cm^3
  V T occipital cortex: 4.3 ± 0.2 mL/cm^3 and 4.3 ± 0.5 mL/cm^3
  V T parietal cortex: 3.9 ± 0.3 mL/cm^3
  V T putamen: 4.0 ± 0.2 mL/cm^3
  V T temporal cortex: 3.9 ± 0.4 mL/cm^3
  V T thalamus: 5.1 ± 0.4 mL/cm^3
[8]
  regional uptake into inflamed areas compared with (R)-[^11C]PK11195: comparable
[9]
  organ with highest radiation-absorbed dose: highest in the lung
[10]; 3 min after intravenous injection of [^11C]CB184, n = 5
  Percentage of radioactivity in plasma: 96.1 ± 2.7%
[10]; 10 min after intravenous injection of [^11C]CB184, n = 5
  Percentage of radioactivity in plasma: 83.8 ± 8.9%
[10]; 20 min after intravenous injection of [^11C]CB184, n = 5
  Percentage of radioactivity in plasma: 61.6 ± 8.0%
[10]; 30 min after intravenous injection of [^11C]CB184, n = 5
  Percentage of radioactivity in plasma: 52.9 ± 4.9%
[10]; 40 min after intravenous injection of [^11C]CB184, n = 5
  Percentage of radioactivity in plasma: 47.0 ± 5.0%
[10]; HPLC of voided urine
  parent radioligand in voided urine: not detected
[10]; HPLC of voided urine, n = 3
  broad hydrophilic metabolites in urine: 99.4% ± 0.6
[10]; approximately 100 min post-injection
  total injected radioactivity recovered in urine: 0.3%
[10]; at 111 ± 17 min, n = 8
  radioactivity voided into urine, of the injected activity: 0.3% ± 0.0
[11]
  regional uptake into inflamed areas compared with (R)-[^11C]PK11195: higher

## CCN(CC)C(=O)Cc1c(-c2ccc(O[11CH3])cc2)nn2c(C)cc(C)nc12 [[^11C]DPA-713]
[2]
  V T caudate: 3.1 ± 0.6
  V T cerebellum: 3.9 ± 0.9
  V T frontal cortex: 4.1 ± 0.8
  V T parietal cortex: 3.7 ± 0.7
  V T putamen: 3.5 ± 0.6
  V T thalamus: 4.7 ± 0.9
